Measurements published in patent US8476434B2, “Protein kinase modulators and method of use” (Amgen Inc., priority 2004, dated 2013).

Biological target: T1, LCK KD GST (225-509) (Homo sapiens, UniProt P06239)
T1 construct: LCK KD GST (225-509); GST
Test: LCK Homogenous Time Resolved Fluorescent (HTRF) kinase assay
Type: biochemical
Description: The LCK HTRF assay begins with LCK in the presence of ATP phosphorylating the biotinylated peptide Gastrin. The reaction incubates for 90 min. To quench the assay detection reagents are added which both stop the reaction by diluting out the enzyme and chelating the metals due to the presence of EDTA. Once the detection reagents are added the assay incubates for 30 min to allow for equilibration of the detection reagents.
Buffer conditions are as follows: 50 mM HEPES pH 7.5, 50 mM NaCl, 20 mM MgCl, 5 mM MnCl, 2 mM DTT, 0.05% BSA.
The assay is quenched and stopped with 160 μL of detection reagent. Detection reagents are as follows: Buffer made of 50 mM Tris, pH 7.5, 100 mM NaCl, 3 mM EDTA, 0.05% BSA, 0.1% Tween20.
The assay plate is read in either a Discovery or a RubyStar.

T1 sequence (P06239 225-509): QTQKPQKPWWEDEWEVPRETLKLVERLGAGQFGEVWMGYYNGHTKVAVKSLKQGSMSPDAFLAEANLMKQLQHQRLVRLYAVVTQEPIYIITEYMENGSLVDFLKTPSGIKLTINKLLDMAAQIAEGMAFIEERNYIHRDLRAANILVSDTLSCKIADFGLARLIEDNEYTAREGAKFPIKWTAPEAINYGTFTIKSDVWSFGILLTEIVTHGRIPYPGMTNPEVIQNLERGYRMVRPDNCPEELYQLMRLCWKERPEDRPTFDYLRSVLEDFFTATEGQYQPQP

Compound	IC50
CNc1cc(-c2cccnc2Oc2cc(NC(=O)c3cccc(C(C)C)c3)cc(C(F)(F)F)c2)ccn1 [N-(3-((2′-(methylamino)-3,4′-bipyridin-2-yl)oxy)-5-(trifluoromethyl)phenyl)-3-(1-methylethyl)benzamide]	< 1000 nM
CNc1ncnc(-c2cccnc2Oc2cccc(NC(=O)c3cccc(C(C)C)c3)c2)n1 [N-(3-((3-(4-(methylamino)-1,3,5-triazin-2-yl)-2-pyridinyl)oxy)phenyl)-3-(1-methylethyl)benzamide]	< 1000 nM
CCOc1cccc(NC(=O)c2ccc(C)c(Nc3ncccc3-c3ccncn3)c2)c1 [N-(3-(ethyloxy)phenyl)-4-methyl-3-((3-(4-pyrimidinyl)-2-pyridinyl)amino)benzamide]	< 1000 nM
CNc1nccc(-c2cccnc2Oc2ccc(NC(=O)Nc3cccc(Br)c3)cc2C)n1 [N-(3-bromophenyl)-N′-(3-methyl-4-((3-(2-(methylamino)-4-pyrimidinyl)-2-pyridinyl)oxy)phenyl)urea]	< 1000 nM
CNc1nccc(-c2cccnc2Oc2ccc(F)c(C(=O)Nc3cc(C(F)(F)F)cc(Cl)c3N(C)CCCN(C)C)c2)n1 [N-(3-chloro-2-((3-(dimethylamino)propyl)(methyl)amino)-5-(trifluoromethyl)phenyl)-2-fluoro-5-((3-(2-(methylamino)-4-pyrimidinyl)-2-pyridinyl)oxy)benzamide]	< 1000 nM
Cc1ccc(C(=O)Nc2cccc(Cl)c2)cc1Nc1ncccc1-c1ccncn1 [N-(3-chlorophenyl)-4-methyl-3-((3-(4-pyrimidinyl)-2-pyridinyl)amino)benzamide]	< 1000 nM
CNc1nccc(-c2cccnc2Oc2ccc(NC(=O)Nc3cccc(Cl)c3)cc2C)n1 [N-(3-chlorophenyl)-N′-(3-methyl-4-((3-(2-(methylamino)-4-pyrimidinyl)-2-pyridinyl)oxy)phenyl)urea]	< 1000 nM
CNc1nccc(-c2cccnc2Oc2ccc(NC(=O)Nc3cc(F)cc(C(F)(F)F)c3)cc2C)n1 [N-(3-fluoro-5-(trifluoromethyl)phenyl)-N′-(3-methyl-4-((3-(2-(methylamino)-4-pyrimidinyl)-2-pyridinyl)oxy)phenyl)urea]	< 1000 nM
CNc1nccc(-c2cccnc2Oc2ccc(NC(=O)Nc3cccc(F)c3)cc2C)n1 [N-(3-fluorophenyl)-N′-(3-methyl-4-((3-(2-(methylamino)-4-pyrimidinyl)-2-pyridinyl)oxy)phenyl)urea]	< 1000 nM
CNc1nccc(-c2cccnc2Oc2ccc(NC(=O)Nc3cc(C(F)(F)F)ccc3OCCN3CCCC3)cc2C)n1 [N-(3-methyl-4-((3-(2-(methylamino)-4-pyrimidinyl)-2-pyridinyl)oxy)phenyl)-N′-(2-((2-(1-pyrrolidinyl)ethyl)oxy)-5-(trifluoromethyl)phenyl)urea]	< 1000 nM
CNc1nccc(-c2cccnc2Oc2ccc(NC(=O)Nc3cc(C(F)(F)F)ccc3CN3CCN(C)CC3)cc2C)n1 [N-(3-methyl-4-((3-(2-(methylamino)-4-pyrimidinyl)-2-pyridinyl)oxy)phenyl)-N′-(2-((4-methyl-1-piperazinyl)methyl)-5-(trifluoromethyl)phenyl)urea]	< 1000 nM
CNc1nccc(-c2cccnc2Oc2ccc(NC(=O)Nc3cc(C4CCN(C)CC4)cc(C(F)(F)F)c3)cc2C)n1 [N-(3-methyl-4-((3-(2-(methylamino)-4-pyrimidinyl)-2-pyridinyl)oxy)phenyl)-N′-(3-(1-methyl-4-piperidinyl)-5-(trifluoromethyl)phenyl)urea]	< 1000 nM
O=C(Nc1cccc(C(F)(F)F)c1)Nc1ccc(Oc2ncccc2-c2ccncn2)c2ccccc12 [N-(4-((3-(4-pyrimidinyl)-2-pyridinyl)oxy)-1-naphthalenyl)-N′-(3-(trifluoromethyl)phenyl)urea]	< 1000 nM
CNc1ncnc(-c2cccnc2Oc2cc(NC(=O)c3cccc(OC(F)(F)F)c3)ccc2C)n1 [N-(4-methyl-3-((3-(4-(methylamino)-1,3,5-triazin-2-yl)-2-pyridinyl)oxy)phenyl)-3-((trifluoromethyl)oxy)benzamide]	< 1000 nM
